Experimental data as given in patent US12357619B2, “Noradrenergic and specific serotonergic anxiolytic and antidepressant, method for the production and use thereof” (ALLA CHEM, LLC, priority 2020, dated 2025).
Where two headings read alike, the source gives them in different places.

Experiments:
[1] = target: T1, Adrenergic α2B (Homo sapiens, UniProt P18089); assay: Receptor activities, Ki (Table 1); format: binding
T1 sequence (P18089 1-450): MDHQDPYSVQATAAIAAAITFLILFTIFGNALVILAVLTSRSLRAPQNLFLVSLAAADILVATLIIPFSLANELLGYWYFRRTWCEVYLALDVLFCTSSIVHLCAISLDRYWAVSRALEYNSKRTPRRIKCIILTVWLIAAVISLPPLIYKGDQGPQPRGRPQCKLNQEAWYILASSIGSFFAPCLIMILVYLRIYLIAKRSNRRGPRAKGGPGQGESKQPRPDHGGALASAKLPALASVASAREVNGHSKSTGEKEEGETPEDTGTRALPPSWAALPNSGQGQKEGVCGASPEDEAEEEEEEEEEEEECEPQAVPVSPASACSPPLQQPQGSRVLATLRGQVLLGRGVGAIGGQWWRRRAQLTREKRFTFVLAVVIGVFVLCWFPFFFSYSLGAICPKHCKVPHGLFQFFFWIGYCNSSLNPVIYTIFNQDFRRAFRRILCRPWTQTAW

[2] = system: volunteers; assay: Safety of increasing doses, single and multiple dosing of capsules in volunteers (Example 11); format: in vivo, human
Experimental: Example 11. Safety study of increasing doses of the oral drug of this invention made as a pharmaceutical composition of this invention in capsules. Clinical safety study of increasing doses of the antipsychotic drug made as a pharmaceutical composition of this invention in capsules for single and multiple dosing. The study covered one cohort of 4 volunteers taking antipsychotic drug once at a dose of 20 mg, and then at the same dose 2 times a day for 4 days. Based on the three-week safety data obtained in the 20-mg cohort taking antipsychotic drug twice a day, the independent safety data monitoring Committee took a decision to involve a second cohort of 4 volunteers, in which the antipsychotic drug under test was taken once at a dose of 20 mg and then 3 times a day for 4 days at the same dose.

[3] = Pharmacokinetics, single oral administration of capsules in healthy volunteers (Example 10); format: in vivo, human; conditions: for AUC(0-inf) / Tmax / Cmax: capsules; for AUC(0-inf) / Tmax: 8 volunteers; for Cmax: average of 8 volunteers
Source text: Clinical study of the safety of the oral drug of this invention.

[4] = system: people with generalized anxiety disorder (GAD); assay: Randomized double-blind placebo-controlled GAD study, clinical global impression-improvement (CGI-I); format: in vivo, human; conditions: after 8 weeks
Experimental: Example 12. Efficacy and safety study of the oral drug of this invention made as a pharmaceutical composition of this invention in capsules. […] During the study, 3 scheduled visits were conducted in Week 2, Week 4, and Week 8 to assess the effectiveness and safety of the therapy as well as drug inventory and administration. During all of those visits, the patient's diary was checked, a drug inventory was made and the patients' compliance was assessed. In addition, adverse events, concomitant therapy, and vital signs were evaluated, urine drug screen was performed, and assessments using Hamilton Anxiety Rating Scale (HARS), Hamilton Depression Scale (HAMD), Clinical Global Impression-Severity (CGI-S), Clinical Global Impression-Improvement (CGI-I), and Visual Analog Scale (VAS) were made; women of child-bearing potential will take a urine pregnancy test. Also, during visits at Week 4 and Week 8 a physical examination was performed, body weight was measured, an ECG was performed in 12 leads and blood and urine samples were obtained for laboratory tests, namely: urinalysis and biochemical blood analysis, PK analysis before and 1 hour after taking the study drug (SD), and urinalysis. At Week 4, a blood sample was also obtained for genotyping by CYP2D6. […] During this time, a possible development of SD withdrawal syndrome against the background of placebo was evaluated. […]

[5] = system: people with generalized anxiety disorder (GAD); assay: Randomized double-blind placebo-controlled GAD study, Hamilton anxiety scale (HARS); format: in vivo, human; conditions: for HARS average change (standard error): after 8 weeks; for Patients who attained a 50% HARS total score reduction at Week 8, percentage / Patients who attained a 50% HARS total score reduction at Week 8, X (number): MITT population
Experimental: Example 12. Efficacy and safety study of the oral drug of this invention made as a pharmaceutical composition of this invention in capsules. […] During the study, 3 scheduled visits were conducted in Week 2, Week 4, and Week 8 to assess the effectiveness and safety of the therapy as well as drug inventory and administration. During all of those visits, the patient's diary was checked, a drug inventory was made and the patients' compliance was assessed. In addition, adverse events, concomitant therapy, and vital signs were evaluated, urine drug screen was performed, and assessments using Hamilton Anxiety Rating Scale (HARS), Hamilton Depression Scale (HAMD), Clinical Global Impression-Severity (CGI-S), Clinical Global Impression-Improvement (CGI-I), and Visual Analog Scale (VAS) were made; women of child-bearing potential will take a urine pregnancy test. Also, during visits at Week 4 and Week 8 a physical examination was performed, body weight was measured, an ECG was performed in 12 leads and blood and urine samples were obtained for laboratory tests, namely: urinalysis and biochemical blood analysis, PK analysis before and 1 hour after taking the study drug (SD), and urinalysis. At Week 4, a blood sample was also obtained for genotyping by CYP2D6. At Week 8, treatment in the groups was completed, and all patients were prescribed a placebo to be taken during the follow-up period, which lasted 1 week. During this time, a possible development of SD withdrawal syndrome against the background of placebo was evaluated. During the visit at Week 9, the patient's diary was checked, a drug inventory was made and the patients' compliance was assessed. In addition, adverse events, concomitant therapy, and vital signs were evaluated, urine drug screen was performed, and assessments using the Hamilton Anxiety Rating Scale (HARS), Hamilton Depression Scale (HAMD), Clinical Global Impression-Severity (CGI-S), Clinical Global Impression-Improvement (CGI-I), and Visual Analog Scale (VAS) were made; women of child-bearing age will take a urine pregnancy test. At this point, the patients' participation in the study was completed, and they received recommendations for further treatment as part of standard GAD therapy.

[6] = target: T2, Adrenergic α2A (Homo sapiens, UniProt P08913); assay: Receptor activities, Ki (Table 1); format: binding
T2 sequence (P08913 1-465): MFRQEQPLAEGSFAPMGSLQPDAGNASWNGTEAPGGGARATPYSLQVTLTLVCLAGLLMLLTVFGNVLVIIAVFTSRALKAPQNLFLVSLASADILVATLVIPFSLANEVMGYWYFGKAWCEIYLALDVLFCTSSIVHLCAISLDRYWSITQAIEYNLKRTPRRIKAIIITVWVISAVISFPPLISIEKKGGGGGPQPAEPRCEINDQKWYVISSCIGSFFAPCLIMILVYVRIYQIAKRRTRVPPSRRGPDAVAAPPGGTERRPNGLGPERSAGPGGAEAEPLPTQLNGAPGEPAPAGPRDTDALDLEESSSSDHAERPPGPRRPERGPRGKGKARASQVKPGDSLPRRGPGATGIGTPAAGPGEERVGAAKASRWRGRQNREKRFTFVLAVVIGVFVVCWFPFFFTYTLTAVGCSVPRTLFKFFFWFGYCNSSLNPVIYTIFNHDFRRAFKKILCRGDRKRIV

[7] = 20 mg once, then 20 mg 2 or 3 times a day for 4 days
[8] = male, human, blood, single oral dose 2 mg
[9] = male, human, blood, single oral dose 4 mg
[10] = male, human, blood, single oral dose 10 mg
[11] = male, human, blood, single oral dose 20 mg

Cc1ccc2c(c1)c1c(n2CCc2ccccc2)CCN(C)C1.Cl [A•HCl, 2,8-dimethyl-5-(2-phenylethyl)-2,3,4,5-tetrahydro-1H-pyrido[4,3-b]indole hydrochloride]
Ki [1]: 0.41 nM | Adverse events associated with taking the drug [2, 7]: did not reveal any adverse events (AEs) associated with taking the drug | Safety profile and tolerability [2, 7]: favorable safety profile and good tolerability | Occurrence of AE by daily dose ([2]; 40 mg and 60 mg daily dose cohorts): AE were observed only in volunteers who received a daily dose of 60 mg | Dose dependence of Cmax and AUC ([3]; dose range from 2 to 20 mg): linear increase in Cmax and AUC | AUC(0-inf) [3, 8]: 0.0946 ng·h/mL | Tmax [3, 8]: 1 h | Cmax ([3]; male, human, blood, single oral dose 2 mg, read-out: Cmax): 0.0021 ng/mL | AUC(0-inf) [3, 9]: 0.211 ng·h/mL | Tmax [3, 9]: 1 h | AUC(0-inf) [3, 10]: 0.462 ng·h/mL | Tmax [3, 10]: 0.625 h | AUC(0-inf) [3, 11]: 0.834 ng·h/mL | Tmax [3, 11]: 1 h | half-life ([3]; male, human, blood, single oral doses 2 to 20 mg, read-out: Harmonic mean half-life): ≤ 14 h | Cmax ([3]; single oral dose 4 mg): 0.0229 ng/mL | Cmax ([3]; single oral dose 10 mg): 0.0537 ng/mL | Cmax ([3]; single oral dose 20 mg): 0.0841 ng/mL | Time at which the maximum concentration in the blood of the base (A) is reached ([3]; single oral doses 2 to 20 mg): about an hour | CGI-I average change (standard error) ([4]; 40 mg, N = 42, average at Week 0 4.00): −1.63 (0.14) | CGI-I average change (standard error) ([4]; 60 mg, N = 44, average at Week 0 4.03): −1.68 (0.14) | HARS average change (standard error) ([5]; 40 mg, N = 42, average at Week 0 26.9): −13.4 (1.37) | HARS average change (standard error) ([5]; 60 mg, N = 44, average at Week 0 26.5): −12.9 (1.37) | Patients who attained a 50% HARS total score reduction at Week 8, percentage ([5]; Dose 60 mg, N = 40): (55.0%) | Patients who attained a 50% HARS total score reduction at Week 8, X (number) ([5]; Dose 60 mg, N = 40, of Y = 40 patients): 22 | Patients who attained a 50% HARS total score reduction at Week 8, percentage ([5]; printed Dose 60 mg, N = 42): (47.6%) | Patients who attained a 50% HARS total score reduction at Week 8, X (number) ([5]; printed Dose 60 mg, N = 42, of Y = 42 patients): 20 | Ki [6]: 1.77 nM
